Experiments:
[1] = Tolerability in mice; format: in vivo; details: B6.129S7-Ifng (gamma interferon knockout), mouse, in vivo, po, 7 days
Procedure: In vivo testing of the anti-Cryptosporidium effect of CpLDH inhibitors. Gamma interferon knockout mice (B6.129S7-Ifng), 8 weeks of age, were purchased from Charles River, USA. The care and use of the mice was done following the guidelines of protocol number 17024 approved by the University of Illinois at Urbana-Champaign, USA. The animals were allowed to acclimatize for 1 week before experiments commenced. Stock solutions of recombinant CpLDH inhibitors reconstituted in DMSO were diluted in sterile distilled water to reduce the final amount of DMSO in the solution to less than 1% (v/v) before administering them to mice. Prior to testing the anti-Cryptosporidium effect of the inhibitors in mice, the tolerability of each inhibitor was tested by oral gavage using varying dosages (100-2000 mg/kg body weight) of each inhibitor in groups of mice (three mice for each dose) daily for 7 days. Mice were observed daily for signs of toxicity including changes from normal physical activity, respiration, body temperature, feeding, posture, fur condition or occurrence of death. […] An equivalent volume of PBS containing a cocktail of penicillin (100 units/ml), streptomycin (100 μg/ml), chloramphenicol (34 μg/ml) and amphotericin (0.25 μg/ml) was added to the fecal samples and stored at 4° C. until use for quantification of C. parvum genomic DNA load. […]

[2] = tested on: C. parvum; assay: Real-time PCR quantification of C. parvum DNA in fecal samples of infected mice; format: in vivo, Cryptosporidium parvum; details: for fecal C. parvum DNA load: Table 6, infected mice, multiplier printed in next cell
Procedure: In vivo testing of the anti-Cryptosporidium effect of CpLDH inhibitors. Gamma interferon knockout mice (B6.129S7-Ifng), 8 weeks of age, were purchased from Charles River, USA. The care and use of the mice was done following the guidelines of protocol number 17024 approved by the University of Illinois at Urbana-Champaign, USA. The animals were allowed to acclimatize for 1 week before experiments commenced. Stock solutions of recombinant CpLDH inhibitors reconstituted in DMSO were diluted in sterile distilled water to reduce the final amount of DMSO in the solution to less than 1% (v/v) before administering them to mice. Prior to testing the anti-Cryptosporidium effect of the inhibitors in mice, the tolerability of each inhibitor was tested by oral gavage using varying dosages (100-2000 mg/kg body weight) of each inhibitor in groups of mice (three mice for each dose) daily for 7 days. Mice were observed daily for signs of toxicity including changes from normal physical activity, respiration, body temperature, feeding, posture, fur condition or occurrence of death. […] The subsequent dosages of NSC10447 used in the mice infection assays were 250, 500 and 1000 mg/kg mouse body weight, while the NSC158011 dosages used were 100, 200 and 400 mg/kg mouse body weight. Mice were allocated to groups as follows: “Infected plus inhibitor treatment”; “Infected minus inhibitor treatment”; “Uninfected minus inhibitor treatment” and “Infected plus paromomycin treatment”. Each group contained at least three mice. Each mouse in the infection groups received 5,000 C. parvum oocysts (resuspended in 50 μl of PBS) by oral gavage. Mice were housed individually in cages lined with sterile gauze as bedding. One day post-infection (PI), daily oral gavage administration of recombinant CpLDH inhibitor or paromomycin commenced and continued for a total of 7 days. Untreated mice received an equivalent volume of sterile distilled water (containing DMSO equivalent to the amount administered in the inhibitor-treated group) by oral gavage. Fecal pellets were collected daily from each cage and placed in individual sterile 15 ml conical tubes. An equivalent volume of PBS containing a cocktail of penicillin (100 units/ml), streptomycin (100 μg/ml), chloramphenicol (34 μg/ml) and amphotericin (0.25 μg/ml) was added to the fecal samples and stored at 4° C. until use for quantification of C. parvum genomic DNA load. Three independent replicate infection assays were performed. At 9 days PI, mice were euthanized and 5 cm of the distal small intestine resected 2 cm anterior to the cecum and immediately submerged in 4% buffered formalin. The intestinal tissues were submitted for histopathology to the Veterinary Diagnostic Laboratory at the University of Illinois at Urbana-Champaign. Briefly, intestinal tissues preserved in 4% buffered formalin were washed in 70% ethanol and embedded in 1% agar and then processed for paraffin embedding. For hematoxylin and eosin staining, five μm transverse and cross sections were cut and processed and stained following standard procedures of the Veterinary Diagnostic Laboratory. Sections were imaged using a Zeiss microscope and images captured with a color camera.
Quantification of C. parvum shed in mice feces. Genomic DNA was extracted from individual fecal samples collected from mice at different days as described above. For each sample, 220 mg of homogenized feces were used to extract genomic DNA using the QIAamp PowerFecal DNA Kit (Qiagen, USA) following the manufacturer's instructions. Quantification of the amount of C. parvum 18s rRNA gene (GenBank accession number AF164102) was performed essentially as described previously (Int. J. Parasitol. 2018; 48(8), 649-656). Briefly, primers were used to generate a 240 bp amplicon from C. parvum genomic DNA by conventional PCR. […]

O=C1c2ccccc2C(=O)c2c(O)c(O)cc(O)c21 [NSC10447]
highest tolerable dose (no toxicity signs) [1]: 1000 mg/kg
lower C. parvum DNA load in feces compared to infected untreated ([2]; NSC10447 at 250, 500 and 1000 mg/kg, day 3 until day 8): at least 50%
fecal C. parvum DNA load ([2]; NSC10447 250 mg/kg, DPI 1): 4.4 ± 0.5 ×10^−10 ng/μL
fecal C. parvum DNA load ([2]; NSC10447 250 mg/kg, DPI 2): 7.3 ± 0.2 ×10^−10 ng/μL
fecal C. parvum DNA load ([2]; NSC10447 250 mg/kg, DPI 3): 1.0 ± 0.1 ×10^−8 ng/μL
fecal C. parvum DNA load ([2]; NSC10447 250 mg/kg, DPI 4): 1.2 ± 0.1 ×10^−7 ng/μL
fecal C. parvum DNA load ([2]; NSC10447 250 mg/kg, DPI 5): 1.2 ± 0.1 ×10^−6 ng/μL
fecal C. parvum DNA load ([2]; NSC10447 250 mg/kg, DPI 6): 4.8 ± 0.2 ×10^−6 ng/μL
fecal C. parvum DNA load ([2]; NSC10447 250 mg/kg, DPI 7): 1.9 ± 0.2 ×10^−5 ng/μL
fecal C. parvum DNA load ([2]; NSC10447 250 mg/kg, DPI 8): 4.7 ± 0.1 ×10^−5 ng/μL
fecal C. parvum DNA load ([2]; NSC10447 500 mg/kg, DPI 1): 1.0 ± 0.5 ×10^−10 ng/μL
fecal C. parvum DNA load ([2]; NSC10447 500 mg/kg, DPI 2): 9.4 ± 0.2 ×10^−10 ng/μL
fecal C. parvum DNA load ([2]; NSC10447 500 mg/kg, DPI 3): 6.7 ± 0.6 ×10^−9 ng/μL
fecal C. parvum DNA load ([2]; NSC10447 500 mg/kg, DPI 4): 1.4 ± 0.1 ×10^−7 ng/μL
fecal C. parvum DNA load ([2]; NSC10447 500 mg/kg, DPI 5): 1.6 ± 0.1 ×10^−6 ng/μL
fecal C. parvum DNA load ([2]; NSC10447 500 mg/kg, DPI 6): 5.9 ± 0.4 ×10^−6 ng/μL
fecal C. parvum DNA load ([2]; NSC10447 500 mg/kg, DPI 7): 9.3 ± 0.2 ×10^−6 ng/μL
fecal C. parvum DNA load ([2]; NSC10447 500 mg/kg, DPI 8): 3.0 ± 0.4 ×10^−5 ng/μL
fecal C. parvum DNA load ([2]; NSC10447 1000 mg/kg, DPI 1): 1.2 ± 0.2 ×10^−9 ng/μL
fecal C. parvum DNA load ([2]; NSC10447 1000 mg/kg, DPI 2): 3.0 ± 0.7 ×10^−9 ng/μL
fecal C. parvum DNA load ([2]; NSC10447 1000 mg/kg, DPI 3): 6.4 ± 0.2 ×10^−9 ng/μL
fecal C. parvum DNA load ([2]; NSC10447 1000 mg/kg, DPI 4): 1.1 ± 0.1 ×10^−7 ng/μL
fecal C. parvum DNA load ([2]; NSC10447 1000 mg/kg, DPI 5): 1.3 ± 0.1 ×10^−6 ng/μL
fecal C. parvum DNA load ([2]; NSC10447 1000 mg/kg, DPI 6): 5.6 ± 0.4 ×10^−6 ng/μL
fecal C. parvum DNA load ([2]; NSC10447 1000 mg/kg, DPI 7): 6.3 ± 0.4 ×10^−6 ng/μL
fecal C. parvum DNA load ([2]; NSC10447 1000 mg/kg, DPI 8): 1.2 ± 0.8 ×10^−6 ng/μL

From patent publication US20250387359A1, “COMPOUNDS AND METHODS FOR THE TREATMENT OF PARASITIC INFECTIONS” (THE BOARD OF TRUSTEES OF THE UNIVERSITY OF ILLINOIS, priority 2019, published 2025)
